Assay results from the NIST ThermoML archive (doi:10.1016/j.jct.2018.07.023).
Several values for one entry are separate records, joined by “and”; a condition that tells them apart may be missing. Equal values may be shown once.

Tests used:
[1] = Molar enthalpy of transition or fusion; details: Crystal; DSC
[2] = molar enthalpy of vaporization or sublimation; details: Static calorimetry

COc1cc(C=O)ccc1O [vanillin]
Details	molar enthalpy [kcal/mol]	vapor or sublimation pressure
303.13 K, Crystal, Calculated from knudsen effusion weight loss	–	6.6e-05 kPa and 6.5e-05 kPa
305.32 K, Crystal, Calculated from knudsen effusion weight loss	–	8.9e-05 kPa and 8.8e-05 kPa
307.19 K, Crystal, Calculated from knudsen effusion weight loss	–	0.000112 kPa and 0.000113 kPa and 0.000114 kPa
309.13 K, Crystal, Calculated from knudsen effusion weight loss	–	0.000144 kPa and 0.000142 kPa and 0.000145 kPa
311.35 K, Crystal, Calculated from knudsen effusion weight loss	–	0.000185 kPa and 0.000182 kPa and 0.000187 kPa
313.2 K, Crystal, Calculated from knudsen effusion weight loss	–	0.000235 kPa and 0.000234 kPa and 0.000236 kPa
315.11 K, Crystal, Calculated from knudsen effusion weight loss	–	0.000292 kPa and 0.00029 kPa and 0.000294 kPa
317.29 K, Crystal, Calculated from knudsen effusion weight loss	–	0.000384 kPa and 0.000383 kPa
319.19 K, Crystal, Calculated from knudsen effusion weight loss	–	0.000472 kPa and 0.000474 kPa and 0.000478 kPa
320.95 K, Crystal, Closed cell (Static) method	–	0.00058 kPa
321.11 K, Crystal, Calculated from knudsen effusion weight loss	–	0.000597 kPa and 0.000586 kPa and 0.000599 kPa
322.92 K, Crystal, Closed cell (Static) method	–	0.00072 kPa
323.29 K, Crystal, Calculated from knudsen effusion weight loss	–	0.000759 kPa and 0.00075 kPa and 0.000765 kPa
324.92 K, Metastable liquid, Closed cell (Static) method	–	0.00192 kPa
324.98 K, Crystal, Closed cell (Static) method	–	0.00092 kPa
325.2 K, Crystal, Calculated from knudsen effusion weight loss	–	0.000955 kPa and 0.000953 kPa and 0.00094 kPa
326.9 K, Crystal, Closed cell (Static) method	–	0.00114 kPa
326.91 K, Metastable liquid, Closed cell (Static) method	–	0.00226 kPa
328.87 K, Metastable liquid, Closed cell (Static) method	–	0.00268 kPa
328.94 K, Crystal, Closed cell (Static) method	–	0.00143 kPa
330.87 K, Metastable liquid, Closed cell (Static) method	–	0.00316 kPa
330.89 K, Crystal, Closed cell (Static) method	–	0.00175 kPa
332.83 K, Metastable liquid, Closed cell (Static) method	–	0.00373 kPa
332.87 K, Crystal, Closed cell (Static) method	–	0.00215 kPa
334.8 K, Metastable liquid, Closed cell (Static) method	–	0.00439 kPa
334.84 K, Crystal, Closed cell (Static) method	–	0.00266 kPa
336.81 K, Metastable liquid, Closed cell (Static) method	–	0.00517 kPa
336.83 K, Crystal, Closed cell (Static) method	–	0.0033 kPa
338.81 K, Metastable liquid, Closed cell (Static) method	–	0.00609 kPa
338.83 K, Crystal, Closed cell (Static) method	–	0.00407 kPa
340.8 K, Metastable liquid, Closed cell (Static) method	–	0.00717 kPa
340.83 K, Crystal, Closed cell (Static) method	–	0.00502 kPa
342.78 K, Metastable liquid, Closed cell (Static) method	–	0.00834 kPa
342.8 K, Crystal, Closed cell (Static) method	–	0.0061 kPa
344.77 K, Crystal, Closed cell (Static) method	–	0.00747 kPa
344.79 K, Metastable liquid, Closed cell (Static) method	–	0.00978 kPa
346.69 K, Metastable liquid, Closed cell (Static) method	–	0.01123 kPa
346.73 K, Crystal, Closed cell (Static) method	–	0.00911 kPa
348.72 K, Crystal, Closed cell (Static) method	–	0.01103 kPa
348.73 K, Metastable liquid, Closed cell (Static) method	–	0.01314 kPa
350.68 K, Metastable liquid, Closed cell (Static) method	–	0.01523 kPa
350.7 K, Crystal, Closed cell (Static) method	–	0.01345 kPa
352.63 K, Metastable liquid, Closed cell (Static) method	–	0.01755 kPa
354.6 K, Metastable liquid, Closed cell (Static) method	–	0.02014 kPa
356.63 K, Closed cell (Static) method, Liquid	–	0.02334 kPa
358.57 K, Closed cell (Static) method, Liquid	–	0.02665 kPa
360.48 K, Closed cell (Static) method, Liquid	–	0.03073 kPa
362.45 K, Closed cell (Static) method, Liquid	–	0.03517 kPa
364.45 K, Closed cell (Static) method, Liquid	–	0.04012 kPa
366.47 K, Closed cell (Static) method, Liquid	–	0.04555 kPa
368.43 K, Closed cell (Static) method, Liquid	–	0.05205 kPa
370.37 K, Closed cell (Static) method, Liquid	–	0.05931 kPa
372.38 K, Closed cell (Static) method, Liquid	–	0.06765 kPa
374.32 K, Closed cell (Static) method, Liquid	–	0.07665 kPa
376.51 K, Closed cell (Static) method, Liquid	–	0.08673 kPa
378.22 K, Closed cell (Static) method, Liquid	–	0.09764 kPa
380.28 K, Closed cell (Static) method, Liquid	–	0.1104 kPa
382.26 K, Closed cell (Static) method, Liquid	–	0.1243 kPa
[2], 298.15 K, Crystal	23.8	–
[2], 375.81 K, Liquid	17.9	–

Details	Normal melting temperature [°C]
Crystal, DTA	82.6

Details	Molar enthalpy of transition or fusion [kcal/mol]
[1]	5.47
